Data reported in the supplement of paper PMC11281043.

How the values were obtained:
Settings in all cases: exposure: 6-8 hpf to 5 dpf, scored at 6 dpf
Danio rerio embryo/larva [1] = experiment: max % larvae with craniofacial defects across tested concentrations; higher = more toxic; extreme values may be limits of the assay
Danio rerio embryo/larva [2] = experiment: max % larvae with pigmentation defects across tested concentrations; higher = more toxic
Danio rerio embryo/larva [3] = experiment: max % larvae with tail defects across tested concentrations; higher = more toxic; extreme values may be limits of the assay
Danio rerio embryo/larva [4] = experiment: max % larvae generally abnormal across tested concentrations; higher = more toxic; extreme values may be limits of the assay
Danio rerio embryo/larva [5] = experiment: max % larvae with abnormal position across tested concentrations; higher = more toxic; extreme values may be limits of the assay
Danio rerio embryo/larva [6] = experiment: max % larvae with spinal defects across tested concentrations; higher = more toxic; extreme values may be limits of the assay
Danio rerio embryo/larva [7] = experiment: max % larvae with blood pooling across tested concentrations; higher = more toxic; extreme values may be limits of the assay
Danio rerio embryo/larva [8] = experiment: max % larvae with uninflated swim bladder across tested concentrations; higher = more toxic; extreme values may be limits of the assay
Danio rerio embryo/larva [9] = experiment: max % larvae with edema across tested concentrations; higher = more toxic; extreme values may be limits of the assay

SMILES | max % larvae (Danio rerio embryo/larva [1]) | max % larvae (Danio rerio embryo/larva [2]) | max % larvae (Danio rerio embryo/larva [3]) | max % larvae generally abnormal across tested concentrations (Danio rerio embryo/larva [4]) | max % larvae (Danio rerio embryo/larva [5]) | max % larvae (Danio rerio embryo/larva [6]) | max % larvae (Danio rerio embryo/larva [7]) | max % larvae (Danio rerio embryo/larva [8]) | max % larvae (Danio rerio embryo/larva [9])
FC(F)(F)C(F)(F)C(F)(F)C(F)(F)C(F)(F)C(F)(F)C(F)(F)CCI [1-Iodo-1H,1H,2H,2H-perfluorononane] (max tested concentration (log10 uM): 1.60206) | 0% | 0% | 0% | 0% | 0% | 0% | 0% | 0% | 0%
FC(F)(F)C(F)(F)C(F)(F)C(F)(F)C(F)(F)C(F)(F)C(F)(F)C(F)(F)CCS [2-(Perfluorooctyl)ethanthiol] (max tested concentration (log10 uM): 1.60206) | 0% | 0% | 0% | 8.33% | 0% | 0% | 0% | 8.33% | 8.33%
OCC(F)(F)OC(F)(F)C(F)(F)OC(F)(F)C(F)(F)OC(F)(F)CO [1H,1H,11H,11H-Perfluorotetraethylene glycol] (max tested concentration (log10 uM): 1.47712) | 0% | 0% | 0% | 0% | 0% | 0% | 0% | 0% | 0%
C=C(C)C(=O)OCC(F)(F)C(F)(F)C(F)(F)C(F)F [1H,1H,5H-Perfluoropentyl methacrylate] (max tested concentration (log10 uM): 2) | 16.7% | 0% | 16.7% | 25% | 0% | 4.17% | 0% | 33.3% | 25%
O=C(Cl)C(F)(F)C(F)(F)C(F)(F)C(=O)Cl [Hexafluoroglutaryl chloride] (max tested concentration (log10 uM): 2) | 0% | 0% | 0% | 0% | 0% | 0% | 0% | 0% | 0%
O=S(=O)(O)CCC(F)(F)C(F)(F)C(F)(F)C(F)(F)F [4:2 Fluorotelomer sulfonic acid] (max tested concentration (log10 uM): 2) | 0% | 0% | 0% | 0% | 0% | 0% | 0% | 0% | 0%
O=C(O)C=CC(F)(C(F)(F)F)C(F)(F)F [3-(Perfluoroisopropyl)-2-propenoic acid] (max tested concentration (log10 uM): 2) | 16.7% | 0% | 8.33% | 16.7% | 8.33% | 8.33% | 16.7% | 16.7% | 16.7%
O=S(=O)(O)C(F)(F)C(F)(F)C(F)(F)C(F)(F)F [Potassium perfluorobutanesulfonate] (max tested concentration (log10 uM): 2) | 0% | 0% | 0% | 4.17% | 0% | 0% | 0% | 8.33% | 0%
NC(=O)C(F)(F)C(F)(F)C(F)(F)C(F)(F)C(F)(F)C(F)(F)C(F)(F)F [Perfluorooctanamide] (max tested concentration (log10 uM): 2) | 0% | 0% | 0% | 0% | 0% | 0% | 0% | 0% | 0%
FC(F)(F)C(F)(C(F)(F)F)C(F)(F)C(F)(F)CC1CO1 (stereo not given) [3-(Perfluoro-3-methylbutyl)-1,2-propenoxide] (max tested concentration (log10 uM): 1.60206) | 0% | 0% | 0% | 0% | 0% | 0% | 0% | 0% | 0%
OCC(F)(F)C(F)(F)C(F)(F)CO [Hexafluoroamylene glycol] (max tested concentration (log10 uM): 2) | 0% | 0% | 0% | 0% | 0% | 0% | 0% | 0% | 0%
O=C(O)C(F)(F)OC(F)(F)C(F)(F)OC(F)(F)F [Perfluoro-3,6-dioxaheptanoic acid] (max tested concentration (log10 uM): 2) | 0% | 0% | 0% | 4.17% | 0% | 0% | 0% | 0% | 4.17%
O=C(O)C(F)(F)C(F)(F)C(F)F [4H-Perfluorobutanoic acid] (max tested concentration (log10 uM): 2) | 0% | 0% | 0% | 0% | 0% | 0% | 0% | 0% | 0%
O=C(O)C(F)(F)C(F)(F)C(F)(F)C(F)(F)C(F)(F)F [Perfluorohexanoic acid] (max tested concentration (log10 uM): 2) | 0% | 0% | 0% | 0% | 0% | 0% | 0% | 0% | 0%
FC(F)(F)COC(OCC(F)(F)F)OCC(F)(F)F [tris(Trifluoroethoxy)methane] (max tested concentration (log10 uM): 2) | 0% | 0% | 0% | 0% | 0% | 0% | 0% | 0% | 0%
